# Measurements published in patent US20140120190A1, “METHODS OF PREPARING PRICKLY-ASH PEEL EXTRACTS AND COSMETIC COMPOSITIONS INCORPORATING PRICKLY-ASH PEEL EXTRACTS” (priority 2012, published 2014).
# Experiments:
# [1] = tested on: NF-κB gene; experiment: Blocking of NF-κB gene expression
# [2] = tested on: skin; experiment: Effects on skin at the tissue level (collagen, elastin, hair follicles, senile plaques)
# [3] = Antioxidant effect
# Description: At the same time, the molecular weight of gx-50 is so small that gx-50 is more easily absorbed via the skin.
smiles,measurement,setting,value
COc1ccc(CCNC(=O)/C=C/c2ccccc2)cc1OC [gx-50],expression of the NF-κB gene,[1],effectively blocks the expression of the NF-κB gene
same,loss of collagen and elastin in skin,[2],helps prevent the loss of collagen and elastin in skin
same,antioxidant effect,[3],possessing an antioxidant effect
